Source: ChEMBL document CHEMBL1159143, “Benzofuran based non-peptide antagonists of angiotensin II related to GR117289: part IV; imidazopyridinylbenzofurans” (Bioorg Med Chem Lett, 1994)

What was measured:
[1] = test system: Type-1 angiotensin II receptor (Oryctolagus cuniculus); test: In vitro inhibitory activity against Angiotensin II receptor in rabbit aorta was evaluated
[2] = Volume distribution in rat; assay type: ADME, organism-based; conditions: in vivo
[3] = Compound was tested for plasma half-life period in rat; assay type: ADME, organism-based
[4] = Compound was tested for plasma clearance in rats; assay type: ADME, organism-based; conditions: rat, read-out: Clp
[5] = Oral bioavailability in rat; assay type: ADME, organism-based; conditions: in vivo

SMILES | pKB [1] | Vd [2] [L/kg] | half-life [3] [h] | clearance [4] [mL/min/kg] | bioavailability [5] [%]
CCc1nc2c(C)cc(C(=O)O)nc2n1Cc1ccc2oc(-c3ccccc3NS(=O)(=O)C(F)(F)F)c(Br)c2c1 | 9.3 |  |  |  | 
CCc1nc2c(C)cc(C)nc2n1Cc1ccc2oc(-c3ccccc3NS(=O)(=O)C(F)(F)F)c(Br)c2c1 | 9.3 | 1.33 | 2.8 | 5.49 | 70
CCc1nc2c(C)ccnc2n1Cc1ccc2oc(-c3ccccc3NS(=O)(=O)C(F)(F)F)c(Br)c2c1 | 8.3 |  |  |  | 
CCc1nc2c(C)cc(CO)nc2n1Cc1ccc2oc(-c3ccccc3NS(=O)(=O)C(F)(F)F)c(Br)c2c1 | 8.6 | 2.4 | 5.7 | 4.8 | 115
